Data published in US7531555B2, “Compositions and methods for selective inhibition of nicotine acetylcholine receptors” (University of Florida Research Foundation, Inc., priority 2003, dated 2009).
Read-outs that look alike come from different tables or passages of the source.

Experiments:
Assay type in all cases: cell-based
[1] = molecular target: T1, Rat α3β2 (Rattus norvegicus, UniProt P04757+P12390); test: Voltage clamp of Xenopus oocytes expressing rat α3β2 nAChR
T1 construct: expressed in transfected cells; host or cells: Xenopus laevis oocytes injected with subunit cRNAs; clones from Dr. Jim Boulter (UCLA)
T1 sequence (P04757 26-499): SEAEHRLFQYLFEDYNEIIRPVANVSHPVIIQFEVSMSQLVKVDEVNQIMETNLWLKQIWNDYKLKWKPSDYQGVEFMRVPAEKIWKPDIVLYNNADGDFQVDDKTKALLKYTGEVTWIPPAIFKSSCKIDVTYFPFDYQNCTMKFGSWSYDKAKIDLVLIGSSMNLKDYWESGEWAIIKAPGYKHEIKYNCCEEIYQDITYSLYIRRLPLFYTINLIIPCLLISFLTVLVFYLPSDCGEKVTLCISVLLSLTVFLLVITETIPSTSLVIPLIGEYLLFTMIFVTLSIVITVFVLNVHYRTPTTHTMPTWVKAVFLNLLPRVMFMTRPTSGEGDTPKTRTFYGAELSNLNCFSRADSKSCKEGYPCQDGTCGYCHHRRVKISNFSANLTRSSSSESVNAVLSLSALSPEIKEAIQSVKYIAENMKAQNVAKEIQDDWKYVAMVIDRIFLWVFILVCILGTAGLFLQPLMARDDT
T1 sequence (P12390 25-500): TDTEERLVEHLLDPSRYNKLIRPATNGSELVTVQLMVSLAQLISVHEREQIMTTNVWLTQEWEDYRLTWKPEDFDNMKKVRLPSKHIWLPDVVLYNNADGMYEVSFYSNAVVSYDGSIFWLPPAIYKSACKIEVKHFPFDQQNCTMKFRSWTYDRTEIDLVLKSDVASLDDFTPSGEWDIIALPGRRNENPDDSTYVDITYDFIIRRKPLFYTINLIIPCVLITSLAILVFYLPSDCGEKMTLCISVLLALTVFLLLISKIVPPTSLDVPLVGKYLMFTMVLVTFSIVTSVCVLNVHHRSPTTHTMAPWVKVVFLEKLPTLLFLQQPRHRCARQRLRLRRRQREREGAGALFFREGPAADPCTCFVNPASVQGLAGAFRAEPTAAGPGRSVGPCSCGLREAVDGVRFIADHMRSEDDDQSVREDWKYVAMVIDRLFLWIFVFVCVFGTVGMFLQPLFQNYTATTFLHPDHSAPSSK
Method: (§1) Mature (>9 cm) female Xenopus laevis African frogs (NASCO, Ft. Atkinson, Wis.) were used as a source of oocytes. Prior to surgery, frogs were anesthetized by placing the animal in a 1.5 g/l solution of MS222 (3-aminobenzoic acid ethyl ester) for 30 minutes. Oocytes were removed from an incision made in the abdomen.
(§2) In order to remove the follicular cell layer, harvested oocytes were treated with 1.25 mg/ml collagenase from Worthington Biochemical Corporation (Freehold, N.J.) for 2 hours at room temperature in calcium-free Barth's solution (88 mM NaCl, 10 mM HEPES pH 7.6, 0.33 mM MgSO4, 0.1 mg/ml gentamicin sulfate). Subsequently, stage 5 oocytes were isolated and injected with 50 nl (5-20 ng) each of the appropriate subunit cRNAs. Recordings were made 2 to 15 days after injection.
(§3) Rat neuronal nAChR clones and mouse muscle nAChR cDNA clones were used. The wild-type clones were obtained from Dr. Jim Boulter (UCLA). The rat α6/3 (Dowell et al. J Neurosci, 2003, 23:8445-8452) clone was obtained from Michael McIntosh (University of Utah) and expressed in Xenopus oocytes in combinations with rat β2 and β3. […] The TM2 domain is understood to line the pore of the channel, with alpha helix structure. The 7′ position may actually be directed away from the actual pore lining, but this residue is highly conserved in all of the nAChR. It is valine in all of them except α9 (isoleucine) and β1, where it is alanine. The TM2 mutation in the α6/3 chimera was corrected by using QuickChange (Stratagene) according to their protocols. The corrected α6/3 chimera sequence was confirmed by restriction diagnostics and by automated fluorescent sequencing (University of Florida core facility). The corrected clone was expressed as above in Xenopus oocytes with β2 and β3 and compared to the wild-type α3 co-expressed with β2 and β3.
(§4) After linearization and purification of cloned cDNAs, RNA transcripts were prepared in vitro using the appropriate mMessage mMachine kit from Ambion Inc. (Austin, Tex.).
(§5) Electrophysiology. The majority of experiments were conducted using OpusXpress 6000A (Axon Instruments, Union City Calif.). OpusXpress is an integrated system that provides automated impalement and voltage clamp of up to eight oocytes in parallel. Cells were automatically perfused with bath solution, and agonist solutions were delivered from a 96-well plate. Both the voltage and current electrodes were filled with 3 M KCl. The agonist solutions were applied via disposable tips, which eliminated any possibility of cross-contamination. Drug applications alternated between ACh controls and experimental applications. Flow rates were set at 2 ml/min for experiments with α7 receptors and 4 ml/min for other subtypes. Cells were voltage-clamped at a holding potential of −60 mV. Data were collected at 50 Hz and filtered at 20 Hz. Agonist applications were 12 seconds in duration followed by 181-second washout periods for α7 receptors and 8 seconds with 241-second wash periods for other subtypes. For some experiments, particularly under conditions where residual inhibition precluded making repeated measurements from single cells (see below), manual oocyte recordings were made as previously described (Papke and Papke Br J of Pharmacol, 2002, 137:49-61). In brief, Warner Instruments (Hamden, Conn.) OC-725C oocyte amplifiers were used, and data were acquired with a minidigi or digidata 1200A with pClamp9 software (Axon Instruments). Sampling rates were between 10 and 20 Hz and the data were filtered at 6 Hz. Cells were voltage clamped at a holding potential of −50 mV.
(§6) Experimental protocols and data analysis. Each oocyte received two initial control applications of ACh, an experimental drug application (or co-application of ACh and TMPH), and then follow-up control application(s) of ACh. The control ACh concentrations for α1β1γδ, α3β4, α4β2, α3β2, α3β2α5, α3β2β3, α6/3β2β3 α6β4β3 and α7, receptors were 30 μM, 100 μM, 10 μM, 30 μM, 1 μM 100 μM 100 μM 100 μM and 300 μM, respectively. […]

[2] = molecular target: T2, Human α3β2α5 (Homo sapiens, UniProt P17787+P30532+P32297); test: Voltage clamp of Xenopus oocytes expressing human α3β2α5 nAChR
T2 construct: expressed in transfected cells; host or cells: Xenopus laevis oocytes injected with subunit cRNAs
T2 sequence (P32297 32-505): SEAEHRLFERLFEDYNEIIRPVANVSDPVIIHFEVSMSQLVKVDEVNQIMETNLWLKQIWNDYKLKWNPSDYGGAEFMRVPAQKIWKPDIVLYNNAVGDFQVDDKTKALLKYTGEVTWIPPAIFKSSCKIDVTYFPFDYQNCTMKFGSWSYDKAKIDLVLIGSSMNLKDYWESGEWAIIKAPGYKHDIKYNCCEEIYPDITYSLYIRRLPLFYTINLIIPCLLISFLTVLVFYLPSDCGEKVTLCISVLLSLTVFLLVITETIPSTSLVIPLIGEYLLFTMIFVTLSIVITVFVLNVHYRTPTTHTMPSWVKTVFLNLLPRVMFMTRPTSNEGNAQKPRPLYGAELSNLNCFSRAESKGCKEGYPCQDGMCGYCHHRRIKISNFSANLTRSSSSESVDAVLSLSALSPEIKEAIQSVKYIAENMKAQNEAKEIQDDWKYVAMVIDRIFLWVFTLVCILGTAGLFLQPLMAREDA
T2 sequence (P17787 26-502): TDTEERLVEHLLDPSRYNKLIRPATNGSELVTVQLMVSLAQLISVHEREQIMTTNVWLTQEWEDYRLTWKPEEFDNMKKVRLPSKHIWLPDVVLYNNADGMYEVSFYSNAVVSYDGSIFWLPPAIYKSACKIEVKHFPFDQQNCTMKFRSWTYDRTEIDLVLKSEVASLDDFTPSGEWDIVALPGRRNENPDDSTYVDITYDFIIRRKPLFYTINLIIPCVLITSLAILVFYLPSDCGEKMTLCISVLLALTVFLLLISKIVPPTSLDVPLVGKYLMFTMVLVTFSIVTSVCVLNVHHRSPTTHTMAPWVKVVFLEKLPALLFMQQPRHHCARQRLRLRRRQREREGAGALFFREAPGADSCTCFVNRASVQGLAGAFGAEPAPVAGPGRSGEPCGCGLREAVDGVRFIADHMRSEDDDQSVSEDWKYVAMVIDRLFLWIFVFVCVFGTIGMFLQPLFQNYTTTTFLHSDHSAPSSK
T2 sequence (P30532 23-468): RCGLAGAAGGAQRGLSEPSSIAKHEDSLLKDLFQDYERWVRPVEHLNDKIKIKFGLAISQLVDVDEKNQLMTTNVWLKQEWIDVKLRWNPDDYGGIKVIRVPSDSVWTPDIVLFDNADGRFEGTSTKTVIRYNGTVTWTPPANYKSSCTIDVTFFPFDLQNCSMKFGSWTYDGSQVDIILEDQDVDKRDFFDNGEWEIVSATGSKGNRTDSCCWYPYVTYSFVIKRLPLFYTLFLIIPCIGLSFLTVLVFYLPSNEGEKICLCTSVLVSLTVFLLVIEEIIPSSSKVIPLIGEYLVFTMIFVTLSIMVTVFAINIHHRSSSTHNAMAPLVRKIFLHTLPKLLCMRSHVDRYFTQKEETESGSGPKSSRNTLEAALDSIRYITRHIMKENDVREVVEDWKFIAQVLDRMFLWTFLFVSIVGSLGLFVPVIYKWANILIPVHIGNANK
Method: as §1, §2, §4
as §5, with “In brief, Warner Instruments (Hamden, Conn.) OC-725C oocyte amplifiers were used, and data were acquired with a minidigi or digidata 1200A with pClamp9 software (Axon Instruments). Sampling rates were between 10 and 20 Hz and the data were filtered at 6 Hz. Cells were voltage clamped at a holding potential of −50 mV.” left out
Experimental protocols and data analysis. […] In other experiments (Papke et al. J. Neurochem., 2000, 75:204-216; Papke and Papke Br J of Pharmacol, 2002, 137:49-61) these concentrations were determined to be the EC74, EC15, EC22, EC17, EC40, EC70, EC55, EC70 and EC100, respectively. […]
(§7) Responses to experimental drug applications were calculated relative to the preceding ACh control responses in order to normalize the data, compensating for the varying levels of channel expression among the oocytes. […]

[3] = molecular target: T3, Human α3β2 (Homo sapiens, UniProt P17787+P32297); test: Voltage clamp of Xenopus oocytes expressing human α3β2 nAChR
T3 construct: expressed in transfected cells; host or cells: Xenopus laevis oocytes injected with subunit cRNAs
T3 sequence (P32297 32-505): as the sequence (P32297 32-505) above
T3 sequence (P17787 26-502): as the sequence (P17787 26-502) above
Method: as §1, §2, §4, §5
as §6, with “respectively. In other experiments (Papke et al. J. Neurochem., 2000, 75:204-216; Papke and Papke Br J of Pharmacol, 2002, 137:49-61) these concentrations were determined to be the EC74, EC15, EC22, EC17, EC40, EC70, EC55, EC70 and EC100, respectively.” for “respectively.”
as §7

[4] = molecular target: T4, Rat α3β4 (Rattus norvegicus, UniProt P04757+P12392); test: Voltage clamp of Xenopus oocytes expressing α3β4 nAChR
T4 construct: expressed in transfected cells; host or cells: Xenopus laevis oocytes injected with subunit cRNAs; clones from Dr. Jim Boulter (UCLA)
T4 sequence (P04757 26-499): as the sequence (P04757 26-499) above
T4 sequence (P12392 21-495): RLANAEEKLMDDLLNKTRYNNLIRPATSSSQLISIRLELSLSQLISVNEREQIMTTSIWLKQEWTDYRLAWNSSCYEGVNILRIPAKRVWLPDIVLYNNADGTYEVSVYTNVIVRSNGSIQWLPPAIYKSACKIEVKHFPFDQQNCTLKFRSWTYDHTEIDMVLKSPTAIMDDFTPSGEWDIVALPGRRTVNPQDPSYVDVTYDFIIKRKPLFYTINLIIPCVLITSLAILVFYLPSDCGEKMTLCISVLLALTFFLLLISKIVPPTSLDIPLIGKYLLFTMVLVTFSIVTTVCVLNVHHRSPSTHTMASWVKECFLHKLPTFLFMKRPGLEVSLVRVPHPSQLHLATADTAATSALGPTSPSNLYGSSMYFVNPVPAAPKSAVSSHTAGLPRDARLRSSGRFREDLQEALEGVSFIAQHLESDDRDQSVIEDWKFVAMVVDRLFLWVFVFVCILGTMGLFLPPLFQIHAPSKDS
Method: as §1, §2, §3, §4, §5, §6

[5] = decrease in net charge, 30 μM ACh co-applied with TMPH, read-out: IC50 (area)
[6] = decrease in peak current amplitude, 30 μM ACh co-applied with TMPH, read-out: IC50 (peak)
[7] = inhibition still present after 5-minute wash, read-out: IC50 (recovery)

CCCCCCC(=O)OC1CC(C)(C)NC(C)(C)C1 [TMPH, 2,2,6,6-tetramethylpiperidin-4-yl heptanoate]
use-independent inhibition, TMPH applied alone ([1]; 1 μM TMPH alone, after the washout period): no detectable effect | IC50 [1, 5]: 440 ± 90 nM | IC50 [1, 6]: 3700 ± 1200 nM | reversibility of inhibition ([1]; following a 5-minute wash): virtually no recovery | IC50 [1, 7]: 230 ± 30 nM | IC50 net charge/IC50 peak ([1]; ratio): 0.12 | IC50 recovery/IC50 net charge ([1]; ratio): 0.52 | IC50 ([2]; decrease in net charge, 1 μM ACh co-applied with TMPH, read-out: IC50 (area)): 430 ± 180 nM | IC50 ([2]; decrease in peak current amplitude, 1 μM ACh co-applied with TMPH, read-out: IC50 (peak)): 1100 nM | IC50 [2, 7]: 750 ± 200 nM | IC50 recovery/IC50 net charge ([2]; ratio): 1.7 | IC50 [3, 5]: 460 ± 170 nM | IC50 [3, 6]: 3700 ± 1200 nM | IC50 [3, 7]: 400 ± 120 nM | IC50 net charge/IC50 peak ([3]; ratio): 0.12 | IC50 recovery/IC50 net charge ([3]; ratio): 0.87 | reversibility of inhibition ([4]; after a 5-minute wash): persisted after the wash | IC50 ([4]; decrease in net charge, 100 μM ACh co-applied with TMPH, read-out: IC50 (area)): 75 ± 23 nM | IC50 ([4]; decrease in peak current amplitude, 100 μM ACh co-applied with TMPH, read-out: IC50 (peak)): 200 ± 50 nM | IC50 [4, 7]: 85 ± 32 nM | IC50 net charge/IC50 peak ([4]; ratio): 0.36 | IC50 recovery/IC50 net charge ([4]; ratio): 1.1
